Test: Crystal form stability on storage (no transformation to other forms)
Type: physicochemical
Conditions: 40° C./75% RH; samples packaged in inner double-layered LDPE bags and an outer aluminum foil composite film bag

Crystalline form stability (transformation to other forms): will not transform to other forms
Substance: trisodium AHU-377 and Valsartan co-crystal hydrate Form II

Source: patent US10442775B2, “Preparation method for eutectic hydrate crystal form II of AHU-377 and diovan trisodium salt” (CRYSTAL PHARMATECH CO., LTD., priority 2015, dated 2019)
